BindingDB's records for doi:10.1016/j.ejmech.2012.05.016 (Piramal Healthcare, 2012)

Each compound was assayed against DGAT1 (Homo sapiens) (assay: Inhibition of human DGAT1 assessed as conversion of [14C]-oleoyl-CoA to [14C]-triglyceride after 10 mins by scintillation counting).

| Structure (SMILES) | IC50 |
| --- | --- |
| CC(C)[C@H](NC(=O)c1cc(-c2ccc(NC(=O)Nc3ccccc3F)cc2)no1)C(=O)O | 0.141 µM |
| CC(C)[C@H](NC(=O)c1cc(-c2ccc(NC(=O)Nc3ccccc3Cl)cc2)no1)C(=O)O | 0.044 µM |
| CC(C)[C@H](NC(=O)c1ncc(-c2ccc(NC(=O)Nc3ccccc3Cl)cc2)o1)C(=O)O | 0.282 µM |
| CC(C)[C@H](NC(=O)c1cc(-c2ccc(NC(=O)Nc3cccc(Cl)c3)cc2)no1)C(=O)O | 0.045 µM |
| CC(C)[C@H](NC(=O)c1cc(-c2ccc(NC(=O)Nc3ccc(Cl)cc3)cc2)no1)C(=O)O | 0.124 µM |
| CC(C)[C@H](NC(=O)c1cc(-c2ccc(NC(=O)Nc3cccc(C(F)(F)F)c3)cc2)no1)C(=O)O | 0.066 µM |
| CC(C)[C@H](NC(=O)c1ncc(-c2ccc(NC(=O)Nc3cccc(C(F)(F)F)c3)cc2)o1)C(=O)O | 0.458 µM |
| CC(C)[C@H](NC(=O)c1cc(-c2ccc(NC(=O)Nc3ccc(Cl)cc3Oc3ccccc3)cc2)no1)C(=O)O | 0.086 µM |
| CC(C)[C@H](NC(=O)c1ncc(-c2ccc(NC(=O)Nc3ccc(Cl)cc3Oc3ccccc3)cc2)o1)C(=O)O | 0.23 µM |
| CC(C)[C@H](NC(=O)c1cc(-c2ccc(NC(=O)Nc3ccc(Cl)cc3F)cc2)no1)C(=O)O | 0.024 µM |
| CC(C)[C@H](NC(=O)c1cc(-c2ccc(NC(=O)Nc3ccc(F)cc3F)cc2)no1)C(=O)O | 0.062 µM |
| CC(C)[C@H](NC(=O)c1cc(-c2ccc(NC(=O)Nc3ccc(F)cc3)cc2)no1)C(=O)O | 0.06 µM |
| Cc1ccc(NC(=O)Nc2ccc(-c3cc(C(=O)N[C@H](C(=O)O)C(C)C)on3)cc2)cc1 | 0.061 µM |
| Cc1ccccc1NC(=O)Nc1ccc(-c2cc(C(=O)N[C@H](C(=O)O)C(C)C)on2)cc1 | 0.084 µM |
| CC(C)[C@H](NC(=O)c1cc(-c2ccc(NC(=O)Nc3ccc(F)c(F)c3)cc2)no1)C(=O)O | 0.075 µM |
| CC(C)[C@H](NC(=O)c1cc(-c2ccc(NC(=O)Nc3cc(F)cc(F)c3)cc2)no1)C(=O)O | 0.075 µM |
| CC(C)[C@H](NC(=O)c1cc(-c2ccc(NC(=O)Nc3cc(F)ccc3F)cc2)no1)C(=O)O | 0.141 µM |
| CC(C)[C@H](NC(=O)c1cc(-c2ccc(NC(=O)Nc3c(F)cccc3F)cc2)no1)C(=O)O | 0.185 µM |
| Cc1cc(C)cc(NC(=O)Nc2ccc(-c3cc(C(=O)N[C@H](C(=O)O)C(C)C)on3)cc2)c1 | 0.114 µM |
| Cc1ccc(NC(=O)Nc2ccc(-c3cc(C(=O)N[C@H](C(=O)O)C(C)C)on3)cc2)cc1F | 0.178 µM |
| Cc1cc(F)ccc1NC(=O)Nc1ccc(-c2cc(C(=O)N[C@H](C(=O)O)C(C)C)on2)cc1 | 0.09 µM |
| CC(C)[C@H](NC(=O)c1nc(-c2ccc(NC(=O)Nc3ccc(F)cc3F)cc2)no1)C(=O)O | 0.259 µM |
| CC(C)[C@H](NC(=O)c1cc(-c2ccc(Nc3nc4ccc(F)cc4s3)cc2)no1)C(=O)O | 0.12 µM |
